# Assays:
# [1] = system: HMLER (human breast cancer bulk cell); assay: MTT cytotoxicity assay, HMLER; assay type: cell-based; details: 72 hr, MTT; read-out: IC50 HMLER
# [2] = system: MCF-10A (human breast epithelial cell); assay: cells; details: read-out: IC50 MCF-10A; 72 hr, MTT
# Source text: HMLER (human mammary endothelial cancer cells), HMLER-shEcad (human mammary endothelial cancer stem cells), and MCF-10A (healthy human mammary endothelial) cells were maintained in Mammary Epithelial Cell Growth Medium (MEGM) with supplements and growth factors: bovine pituitary extract (BPE), hydrocortisone, human epidermal growth factor (hEGF), insulin, and gentamicin/amphotericin-B. HEK293T (human embryonic kidney cell), and U2OS (homo sapiens bone osteosarcoma) cells were maintained in Dulbecco's Modified Eagle's Medium (DMEM) with a final concentration of 10% fetal bovine serum. The cells were grown in T75 flask at 310 K in a humidified atmosphere containing 5% CO2.
# The colourimetric MTT (3-(4,5-dimethylthiazol-2-yl)-2,5-diphenyltetrazolium bromide) assay was used to determine the toxicity of the anti-cancer peptides and conventional anti-cancer drugs. 5×10^3 cells were seeded in each well of a 96-well microplate. The cells were incubated overnight. Elevated concentrations of the compounds (0, 0.1, 0.2, 0.4, 0.8, 1.6, 3.1, 6.3, 12.5, 25, 50 and 100 μM) were added and incubated for 72 hr with a total volume 200 μL. The stock solutions of the compounds were prepared as 5 mM solutions in DMSO and diluted using media or in pure water. The final concentration of DMSO in each well was either 0.5% or 0% and this amount was present in the untreated control. After 72 hr, 20 μL of a 4 mg/mL solution of MTT in PBS was added to each well, and the plate was incubated for an additional 4 hr. The MEGM/MTT mixture was aspirated and 100 μL of DMSO was added to dissolve the resulting purple formazan crystals. The absorbance of the solutions in each well was read at 550 nm wavelength. Absorbance values were normalized to either DMSO-containing or non DMSO-containing control wells and plotted as concentration of test compound versus % cell viability. ICso values were interpolated from the resulting dose dependent curves.
# The peptides were screened against several different human cell lines and their cytotoxicity were determined. Cell lines utilised include MCF-10A (human breast epithelial cell), HMLER (human breast cancer bulk cell), HMLER-shEcad (human breast cancer stem cell), HEK293T (human embryonic kidney cell), and U2OS (human bone osteosarcoma).
# [3] = Tryptophan fluorescent binding assay, 3POPC/1POPG vesicles; details: 50 μM peptide, PBS pH 7.4
# Description: (§1) In brief, 50 μM peptides were fixed and incubated with titrated POPC vesicles (black) or 3POPC/1POPG vesicles (grey) at concentrations of 0, 12.5, 25, 50, 100, 250, 500, 1000, 2500, and 5000 μM in phosphate buffered saline (1X, pH 7.4). The lipid concentration that causes 50% peptide binding was determined using a tryptophan fluorescent binding assay and the values are shown as lipid per peptide.
# (§2) The lipids 1-palmitoyl-2-oleoyl-sn-glycero-3-phosphocholine (POPC), 1-palmitoyl-2-oleoyl-snglycero-3-phospho-(1′-rac-glycerol) (POPG) were purchased from Avanti Polar Lipids and dissolved in chloroform. Large unilamellar vesicles (LUVs) were produced by extrusion through 100 nm pore filter using an extruder and filters purchased from Avanti Polar Lipids.
# (§3) Peptides (50 μM) and POPC/POPG LUVs (600 μM) were prepared in 10 mM phosphate buffer (pH 7.0). The solutions were incubated and measured after 60 minutes. Excitation was fixed at 280 nm (slit 9 nm) and emission was collected from 300 to 450 nm (slit 9 nm). The spectra were recorded using a Synergy H1 Hybrid Multi-Mode Reader (FIG. 3A) and Cytation™ 5 Cell Imaging Multi-Mode Reader (FIG. 2) from BioTek and were averaged over 3 scans.
# (§4) Table 3 illustrates the lipid concentration-induced 50% peptide binding onto a liposome. 50 μM peptide was fixed and incubated with titrated lipid (POPC vesicles or 3POPC/1POPG vesicles) at concentrations of 0, 12.5, 25, 50, 100, 250, 500, 1000, 2500, and 5000 μM in phosphate buffered saline (1X, pH 7.4). The lipid concentration that causes 50% peptide binding was determined using tryptophan fluorescent binding assay and the values are shown as lipid per peptide. IN-terminus is free, C-terminus: —W—NH2.
# [4] = Tryptophan fluorescent binding assay, POPC vesicles; details: 50 μM peptide, PBS pH 7.4
# Description: as §1, §2, §3, §4
# [5] = system: HMLER-shEcad (human breast cancer stem cell); assay: MTT cytotoxicity assay, HMLER-shEcad; assay type: cell-based; details: 72 hr, MTT; read-out: IC50 HMLER-shEcad
# [6] = ANTS/DPX liposome leakage assay, POPC vesicles; assay type: biochemical; details: 0.5 mM vesicles
# Description: (§5) In brief, 0.5 mM POPC vesicles (grey) or POPC:POPG vesicles (ratio 3:1, black) were incubated with peptide concentrations of 0, 0.02, 0.04, 0.08, 0.16, 0.32, 0.64, 1.25, 2.5, 5, 10, and 20 μM in each A) hydrochloric acid-adjusted phosphate buffered saline (1X, pH 4.8) and B) phosphate buffered saline (1X, pH 7.4).
# as §2
# (§6) 5 mM ANTS (8-aminonaphthalene-1,3,6-trisulfonic acid, disodium salt) and 12.5 mM DPX (p-xylene-bis-pyridinium bromide) were entrapped in 0.1 μm diameter extruded vesicles with lipids. Gel filtration chromatography using a Sephadex G-100 (GE Healthcare Life Sciences Inc) was used to remove external free ANTS/DPX from LUVs with entrapped contents. LUVs were diluted to 0.5 mM and used to measure the leakage activity by addition of aliquots of peptides. Leakage was measured after 3 h incubation. 10% Triton was used as the positive control to measure the maximum leakage of the vesicle. Fluorescence emission spectra were recorded using excitation and emission wavelength of 350 nm and 510 nm for ANTS/DPX using a BioTek Synergy H1 Hybrid Multi-Mode Reader.
# (§7) Table 4 illustrates peptide concentration-induced 50 ANTS/DPX liposome leakage. 0.5 mM POPC and 3POPC/1POPG vesicles were fixed and incubated with titrated peptide concentration (0, 0.02, 0.04, 0.08, 0.16, 0.32, 0.64, 1.25, 2.5, 5, 10, and 20 μM) each in phosphate buffered saline (1X, pH 7.4) and hydrochloric acid-adjusted phosphate buffered saline (1X, pH 4.8). The values are shown as lipid per peptide. IN-terminus is free, C-terminus: —W—NH2.
# [7] = system: HEK293T (human embryonic kidney cell); assay: MTT cytotoxicity assay, HEK293T; assay type: cell-based; details: 72 hr, MTT; read-out: IC50 HEK293T
# [8] = ANTS/DPX liposome leakage assay, 3POPC/1POPG vesicles; assay type: biochemical; details: 0.5 mM vesicles
# Description: as §5, §2, §6, §7
# [9] = system: U2OS (human bone osteosarcoma); assay: MTT cytotoxicity assay, U2OS; assay type: cell-based; details: 72 hr
Sequence,IC50 [1] [nM],IC50 [2] [µM],Lipid Concentration-induced 50% Peptide Binding (L/P) 3POPC/1POPG Vesicle [3] [L/P],Lipid Concentration-induced 50% Peptide Binding (L/P) POPC Vesicle [4] [L/P],IC50 [5] [nM],Peptide Concentration-induced 50% ANTS/DPX leakage at pH 4.8 (L/P) POPC Vesicle [6] [L/P],Peptide Concentration-induced 50% ANTS/DPX leakage at pH 7.4 (L/P) POPC Vesicle [6] [L/P],IC50 [7] [µM],Peptide Concentration-induced 50% ANTS/DPX leakage at pH 4.8 (L/P) 3POPC/1POPG Vesicle [8] [L/P],Peptide Concentration-induced 50% ANTS/DPX leakage at pH 7.4 (L/P) 3POPC/1POPG Vesicle [8] [L/P],IC50 [9] [µM]
GLLDLLELLLHAAG [DEH],5350 ± 1910,20.2 ± 6.72,1.50,0.75,3600 ± 420,63,620,10.5 ± 4.67,193,548,36.5 ± 3.92
GLLDLLHLLLEAAG [DHE],3750 ± 920,22.7 ± 4.31,0.72,1.00,2800 ± 140,58,566,11.1 ± 1.91,469,581,17.2 ± 1.06
GLLDLLHLLLKAAG [DHK],1750 ± 490,5.05 ± 1.34,0.38,0.20,1020 ± 120,47,747,7.3 ± 0.42,183,469,20.4 ± 2.05
GLLDLLKLLLEAAG [DKE],2100,4.75 ± 0.49,0.46,0.56,1570 ± 330,21,747,7.8 ± 1.41,469,411,9.93 ± 0.25
GLLDLLKLLLHAAG [DKH],3450 ± 70,7.05 ± 0.21,0.46,10.00,2800 ± 280,41,614,6.15 ± 1.34,58,274,21.1 ± 3.01
GLLDLLKLLLKAAG [DKK],1950 ± 350,2.57 ± 0.52,6.88,2.75,1200 ± 140,47,463,3.4 ± 0.28,227,156,10.4 ± 1.7
GLLELLHLLLKAAG [EHK],1350 ± 350,3.6 ± 0.99,0.42,0.56,710 ± 130,55,981,5.35 ± 0.07,117,505,25
GLLELLKLLLEAAG [EKE],1800 ± 280,8.8,1.63,2.75,1300 ± 140,75,738,5.15 ± 0.21,438,657,8 ± 0.71
